Test results as given in patent US11787799B2 (priority 2015, dated 2023).
pEC50: −log10 of the molar value.

Key:
Measles = assay: microbe, parasite or virus in culture; type: cell-based; conditions: Measles morbillivirus, Vero 76, read-out: EC50 Measles
in vitro [1] = conditions: African green monkey
Yellow Fever Virus = assay: microbe, parasite or virus in culture; type: cell-based; conditions: Yellow fever virus, Vero, read-out: EC50 Yellow Fever Virus
in vitro [2] = conditions: African green monkey; remark: listed apart in the source
Influenza A H1N1 = assay: microbe, parasite or virus in culture; type: cell-based; conditions: Influenza A virus, H1N1, MDCK, read-out: EC50 Influenza A H1N1
[3] = test system: RSV (resp syncitial virus); assay: microbe, parasite or virus in culture; type: cell-based; conditions: human respiratory syncytial virus, MA104, read-out: EC50 RSV
Punta Toro virus = assay: microbe, parasite or virus in culture; type: cell-based; conditions: Punta Toro virus, Vero 76, read-out: EC50 Punta Toro virus
Rift Valley virus = assay: organism not typed; type: cell-based; conditions: Vero 76, read-out: EC50 Rift Valley virus
in vitro [4] = conditions: dog

Nc1cc2nc[nH]c2c(=O)[nH]1 [3-Deazaguanine, reference compound]
pEC50 (Measles): 5.62
CC50 (in vitro [1]): > 100 µM

O=c1cnn([C@@H]2O[C@H](CO)[C@@H](O)[C@H]2O)c(=O)[nH]1 [Compound 6-Azauridine, 6-Azauridine, reference compound]
pEC50 (Yellow Fever Virus): 6.54
CC50 (in vitro [2]): 10 µM

NC(=O)c1ncn([C@@H]2O[C@H](CO)[C@@H](O)[C@H]2O)n1 [Ribavirin, reference compound]
pEC50 (Influenza A H1N1): 5.12
pEC50 [3]: 4.92
pEC50 (Punta Toro virus): 4.96
pEC50 (Rift Valley virus): 5.04
CC50 (in vitro [4]): > 320 µM
